Experimental data as given in patent US10058495B2, “Method of making a skin care product” (The Procter & Gamble Company, priority 2014, dated 2018).
Residues, ends and D or L forms follow the SMILES beside them. *: point of attachment. Palmitoyl = CCCCCCCCCCCCCCCC(=O)*

Tests used:
[1] = Ex vivo skin penetration study (Franz cell); format: in vitro ADME, human; settings: arrays 1 (uni-directional, 27 mT) and 2 (bi-directional, overall 21 mT) of Table 1 versus other arrays tested; 400 μg/ml in 50:50 PG:PB at pH 4
Procedure: An ex vivo skin penetration study was conducted to compare the ability of different magnetic arrays to enhance penetration of Pal-KTTKS (SEQ ID NO: 1) into the epidermis of human skin. The dermis and epidermis of human skin samples obtained from donors aged 60-65 years were heat separated and the dermis discarded. 20 μL of a Pal-KTTKS (SEQ ID NO: 1) containing composition (400 μg/ml in 50:50 PG:PB at pH 4) was placed on human epidermis in Franz cell. Different magnetic arrays were positioned approximately 1.0 mm above the epidermis samples and moved over the samples at the speed a user might move a cosmetic applicator when applying a skin care product (e.g., about 20-25 cm/sec). Samples were taken and measured at 0, 1, 2, 4, 6, 8, 24 hours. […] For the bi-directional arrays herein, the “1st layer” refers to the layer closest to the skin-contacting surface of the applicator, and the “2nd layer” refers to the layer disposed on the side of the 1st layer opposite the side closest to the skin-contacting surface.

[2] = In vivo skin penetration study #2 (Tape Stripping method), magnetic vs non-magnetic applicator; set-up: species or system human; settings: for amount of Pal-KTTKS recovered, Sum 2-10 / amount of Pal-KTTKS recovered, Sum 6-10: in ng (unit assumed)
Procedure: This method provides a suitable means of measuring the amount of skin care active present in skin, and comparing active versus passive application of the skin care active. Two identical rectangular areas of 15 cm^2 are marked on the volar forearms of volunteers. A measured dose (approximately 30 mg) of the Pal-KTTKS (SEQ ID NO: 1) formulation is applied to the delineated areas using a screw actuated syringe. Active application is carried out on one of the delineated areas using the three-quarter profile of a purpose made applicator (e.g., an applicator presenting one of the magnetic arrays set forth in Table 2). Passive application is accomplished on the other delineated area using the tip of a finger in a sweeping motion identical to that of the active application. The formulation is spread evenly across the entire delineated region using a sweeping motion with a fixed speed of approximately 23 cm/s to […]. The application period is 30 seconds during which time visual inspection is used to ensure even distribution and absorption of the formulation by skin. The application area is then left uncovered for a further 30 minutes to ensure complete absorption. Tape strip samples may be collected and/or analyzed immediately after the complete absorption is ensured or after a waiting period (e.g., after multiple applications of the formulation over multiple hours or days).
The tape stripping procedure is carried out using 10 commercial pre-cut 22.1 mm tape stripping adhesive discs (e.g., D-SQUAME, available from Cuderm Corporation or equivalent) with an adhesive area of 3.8 cm^2. The 10 tape strips are applied sequentially to the same sampling site, which ideally enables each tape strip to obtain a sample from deeper within the stratum corneum than the tape strip that preceded it. A 22.1 mm diameter circular region is marked at the center of the application area. A tape stripping adhesive disc is placed over the marked area and even pressure applied using, for example, a neoprene roller, rolled ten times over the adhesive disc. The adhesive disc is removed from the skin surface in a single pulling motion using manual tweezers. To ensure even removal of the skin sample, subsequent discs are removed in a “north, south, east and west” orientation, which is within the skill of the ordinary artisan. Each adhesive disc is non-destructively analysed for protein content using a suitable instrument (e.g., SquameScan™ 850 instrument commercially available from Heiland Electronics Wetzlar, Germany, or equivalent). The adhesive disc is then immediately placed into a glass vial containing extraction solvent in preparation for subsequent analysis. Solvent extractions are conducted on each tape strip using conventional extraction methods, which are well known to those of ordinary skill in the art, and measuring the amount of Pal-KTTKS (SEQ ID NO: 1) present in the extract, for example, by high performance liquid chromatography (“HPLC”) and/or mass spectrometry.
The procedure is repeated for the remaining nine strips. An additional strip is obtained from outside the area of application of the skin care formulation to serve as a blank sample. The amount of active is normalized to the amount of protein measured.
This in vivo skin penetration study compares the penetration of Pal-KTTKS (SEQ ID NO: 1) into skin when a Pal-KTTKS (SEQ ID NO: 1)-containing composition is applied with a magnetic applicator (active application) versus application with a non-magnetic applicator (passive application). In this example, 5 test subjects (A to E in Tables 13 and 14) were selected. 18 mg of a composition containing Pal-KTTKS (SEQ ID NO: 1) (Olay® Deep Wrinkle Treatment® brand skin cream available from the Procter & Gamble Company, Cincinnati, Ohio) was applied to two 3 cm×3 cm test sites on the inner forearms of each test subject using the applicator illustrated in FIG. 1C. The applicator used for active application included Array #8 from Table 2. […]

[3] = active, array #8, Avg of all test sites
[4] = active, array #8, subject A site 1
[5] = active, array #8, subject A site 2
[6] = active, array #8, subject B site 1
[7] = active, array #8, subject B site 2
[8] = active, array #8, subject C site 1
[9] = active, array #8, subject C site 2
[10] = active, array #8, subject D site 1
[11] = active, array #8, subject D site 2
[12] = active, array #8, subject E site 1
[13] = active, array #8, subject E site 2

penetration enhancement of Pal-KTTKS into epidermis [1]: best penetration enhancement | amount of Pal-KTTKS recovered, Sum 2-10 [2, 3]: 42.02 | amount of Pal-KTTKS recovered, Sum 6-10 [2, 3]: 22.74 | amount of Pal-KTTKS recovered, Sum 2-10 [2, 4]: 83.43 | amount of Pal-KTTKS recovered, Sum 6-10 [2, 4]: 53.81 | amount of Pal-KTTKS recovered, Sum 2-10 [2, 5]: 40.40 | amount of Pal-KTTKS recovered, Sum 6-10 [2, 5]: 17.29 | amount of Pal-KTTKS recovered, Sum 2-10 [2, 6]: 42.67 | amount of Pal-KTTKS recovered, Sum 6-10 [2, 6]: 21.36 | amount of Pal-KTTKS recovered, Sum 2-10 [2, 7]: 36.84 | amount of Pal-KTTKS recovered, Sum 6-10 [2, 7]: 16.95 | amount of Pal-KTTKS recovered, Sum 2-10 [2, 8]: 31.64 | amount of Pal-KTTKS recovered, Sum 6-10 [2, 8]: 19.40 | amount of Pal-KTTKS recovered, Sum 2-10 [2, 9]: 90.87 | amount of Pal-KTTKS recovered, Sum 6-10 [2, 9]: 54.66 | amount of Pal-KTTKS recovered, Sum 2-10 [2, 10]: 18.10 | amount of Pal-KTTKS recovered, Sum 6-10 [2, 10]: 9.26 | amount of Pal-KTTKS recovered, Sum 2-10 [2, 11]: 18.31 | amount of Pal-KTTKS recovered, Sum 6-10 [2, 11]: 8.02 | amount of Pal-KTTKS recovered, Sum 2-10 [2, 12]: 31.17 | amount of Pal-KTTKS recovered, Sum 6-10 [2, 12]: 14.86 | amount of Pal-KTTKS recovered, Sum 2-10 [2, 13]: 26.78 | amount of Pal-KTTKS recovered, Sum 6-10 [2, 13]: 11.84 | Enhancement value Strips 2-10 (active/passive) ([2]; array #8, Avg of the enhancement values of all test sites): 4.00 | Enhancement value Strips 2-10 (active/passive) ([2]; array #8, subject A site 1): 1.34 | Enhancement value Strips 6-10 (active/passive) ([2]; array #8, subject A site 1): 1.33 | Enhancement value Strips 2-10 (active/passive) ([2]; array #8, subject A site 2): 16.52 | Enhancement value Strips 2-10 (active/passive) ([2]; array #8, subject B site 1): 3.39 | Enhancement value Strips 6-10 (active/passive) ([2]; array #8, subject B site 1): 18.16 | Enhancement value Strips 2-10 (active/passive) ([2]; array #8, subject B site 2): 3.47 | Enhancement value Strips 2-10 (active/passive) ([2]; array #8, subject C site 1): 2.23 | Enhancement value Strips 6-10 (active/passive) ([2]; array #8, subject C site 1): 3.03 | Enhancement value Strips 2-10 (active/passive) ([2]; array #8, subject C site 2): 1.32 | Enhancement value Strips 6-10 (active/passive) ([2]; array #8, subject C site 2): 1.22 | Enhancement value Strips 2-10 (active/passive) ([2]; array #8, subject D site 1): 1.72 | Enhancement value Strips 6-10 (active/passive) ([2]; array #8, subject D site 1): 3.63 | Enhancement value Strips 2-10 (active/passive) ([2]; array #8, subject D site 2): 2.35 | Enhancement value Strips 2-10 (active/passive) ([2]; array #8, subject E site 1): 4.86 | Enhancement value Strips 6-10 (active/passive) ([2]; array #8, subject E site 1): 10.70 | Enhancement value Strips 2-10 (active/passive) ([2]; array #8, subject E site 2): 2.75 | Enhancement value Strips 6-10 (active/passive) ([2]; array #8, subject E site 2): 6.73 | amount of Pal-KTTKS recovered, Sum 2-10 ([2]; passive, Avg of all test sites): 20.55 | amount of Pal-KTTKS recovered, Sum 6-10 ([2]; passive, Avg of all test sites): 10.01 | amount of Pal-KTTKS recovered, Sum 2-10 ([2]; passive, subject A site 1): 62.40 | amount of Pal-KTTKS recovered, Sum 6-10 ([2]; passive, subject A site 1): 40.39 | amount of Pal-KTTKS recovered, Sum 2-10 ([2]; passive, subject A site 2): 2.45 | amount of Pal-KTTKS recovered, Sum 6-10 ([2]; passive, subject A site 2): 0.00 | amount of Pal-KTTKS recovered, Sum 2-10 ([2]; passive, subject B site 1): 12.58 | amount of Pal-KTTKS recovered, Sum 6-10 ([2]; passive, subject B site 1): 2.25 | amount of Pal-KTTKS recovered, Sum 2-10 ([2]; passive, subject B site 2): 10.61 | amount of Pal-KTTKS recovered, Sum 6-10 ([2]; passive, subject B site 2): 1.04 | amount of Pal-KTTKS recovered, Sum 2-10 ([2]; passive, subject C site 1): 14.16 | amount of Pal-KTTKS recovered, Sum 6-10 ([2]; passive, subject C site 1): 5.56 | amount of Pal-KTTKS recovered, Sum 2-10 ([2]; passive, subject C site 2): 68.87 | amount of Pal-KTTKS recovered, Sum 6-10 ([2]; passive, subject C site 2): 43.44 | amount of Pal-KTTKS recovered, Sum 2-10 ([2]; passive, subject D site 1): 10.53 | amount of Pal-KTTKS recovered, Sum 6-10 ([2]; passive, subject D site 1): 3.35 | amount of Pal-KTTKS recovered, Sum 2-10 ([2]; passive, subject D site 2): 7.81 | amount of Pal-KTTKS recovered, Sum 6-10 ([2]; passive, subject D site 2): 0.00 | amount of Pal-KTTKS recovered, Sum 2-10 ([2]; passive, subject E site 1): 6.41 | amount of Pal-KTTKS recovered, Sum 6-10 ([2]; passive, subject E site 1): 1.72 | amount of Pal-KTTKS recovered, Sum 2-10 ([2]; passive, subject E site 2): 9.74 | amount of Pal-KTTKS recovered, Sum 6-10 ([2]; passive, subject E site 2): 2.31
Structure (SMILES): CCCCCCCCCCCCCCCC(=O)N[C@@H](CCCCN)C(=O)N[C@H](C(=O)N[C@H](C(=O)N[C@@H](CCCCN)C(=O)N[C@@H](CO)C(=O)O)[C@@H](C)O)[C@@H](C)O [Pal-KTTKS, palmitoyl-lysine-threonine-threonine-lysine-serine] (Palmitoyl-KTTKS-OH; C-terminus assumed)
